Test results from patent US20240279227A1, “FUSED HETEROCYCLIC DERIVATIVES” (Janssen Sciences Ireland Unlimited Company, priority 2021, published 2024).

Legend:
HBV = assay: Anti-HBV activity in HepG2.117 cell line (intracellular HBV DNA, real-time PCR); type: cell-based, hepatitis B virus; details: HepG2.117 cells, HBV replication induced, 3 days of treatment, intracellular HBV DNA by real-time PCR
Method in brief: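 HepG2.117 cells (Tet-off, doxycycline-free HBV replication) induced for HBV replication, then exposed to serially diluted compound for 3 days. Intracellular HBV DNA quantified by real-time PCR with HBV-specific primers and probe.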

HepG2 or HepG2.117 cells = assay: Cytotoxicity, ATPlite Luminescence Assay; type: cell-based, human; details: 3-days incubation unless marked with *, ATPlite viability
Method in brief: (§1)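 Viability after compound treatment is read as ATP luminescence. Exposure lasts 3 or 4 days.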

[1] = Human liver microsome stability; type: in vitro ADME; details: 1 μM compound, NADPH 1 mM, pH 7.4, 37° C., 0-60 min; for HLM Metabolism t1/2: pooled human liver microsomes 0.5 mg/mL; for half-life at 1 μM: human, pooled human liver microsomes, pH 7.4, pooled human liver microsomes 0.5 mg/mL, read-out: HLM Metabolism t1/2
Method in brief: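 Pooled human liver microsomes (0.5 mg/mL) incubated at 37 °C with 1 μM compound in 0.1 M phosphate pH 7.4, 1 mM MgCl2; 1 mM NADPH starts reaction. Samples quenched in acetonitrile at 0–60 min, analysed by LC-MS against internal standard; half-life from slope of ln peak-area ratio versus time.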

[2] = Cytotoxicity, ATPlite Luminescence Assay; type: cell-based, human; details: human, HepG2 or HepG2.117 cells, 3-days incubation unless marked with *, ATPlite viability
Method in brief: as §1

[3] = Hepatitis B virus, HepG2.117, 72 h

SMILES | EC50 (HBV) [µM] | CC50 (HepG2 or HepG2.117 cells) [µM] | HLM Metabolism t1/2 [1] [h] | EC50 (HBV; [3]) [µM] | CC50 [2] [µM] | half-life at 1 μM [1] [h]
CNC(=O)[C@@H]1CN(C(C)c2nc(C(F)(F)F)cs2)C(=O)c2c3c(nn21)C[C@@H](C)N(C(=O)c1ccc(Cl)c(Cl)c1)C3 (single isomer, unassigned) [Compound 44B, (3R,7S)-2-(3,4-dichlorobenzoyl)-N,3-dimethyl-10-oxo-9-((S*)-1-(4-(trifluoromethyl)thiazol-2-yl)ethyl)-1,2,3,4,7,8,9,10-octahydropyrido[4′,3′:3,4]pyrazolo[1,5-a]pyrazine-7-carboxamide] | 0.091 | > 50 | >3 |  |  | 
CNC(=O)[C@@H]1CN(C(C)c2ccc(OC)nc2)C(=O)c2c3c(nn21)C[C@@H](C)N(C(=O)c1ccc(Cl)c(Cl)c1)C3 (single isomer, unassigned) [Compound 31B, (3R,7S)-2-(3,4-dichlorobenzoyl)-9-((S*)-1-(6-methoxypyridin-3-yl)ethyl)-N,3-dimethyl-10-oxo-1,2,3,4,7,8,9,10-octahydropyrido[4′,3′:3,4]pyrazolo[1,5-a]pyrazine-7-carboxamide] | 0.018 | > 50 | >3 |  |  | 
CNC(=O)[C@@H]1CN(C(C)c2ccc(-c3nnnn3C)cc2)C(=O)c2c3c(nn21)C[C@@H](C)N(C(=O)c1ccc(Cl)c(Cl)c1)C3 (single isomer, unassigned) [Compound 29B, (3R,7S)-2-(3,4-dichlorobenzoyl)-N,3-dimethyl-9-((S*)-1-(4-(1-methyl-1H-tetrazol-5-yl)phenyl)ethyl)-10-oxo-1,2,3,4,7,8,9,10-octahydropyrido[4′,3′:3,4]pyrazolo[1,5-a]pyrazine-7-carboxamide] | 0.082 | > 50 | >3 |  |  | 
CNC(=O)[C@@H]1CN(C(C)c2ccc(C(F)F)nc2)C(=O)c2c3c(nn21)C[C@@H](C)N(C(=O)c1ccc(Cl)c(Cl)c1)C3 (single isomer, unassigned) [Compound 36A, (3R,7S)-2-(3,4-Dichlorobenzoyl)-9-((R*)-1-(6-(difluoromethyl)pyridin-3-yl)ethyl)-N,3-dimethyl-10-oxo-1,2,3,4,7,8,9,10-octahydropyrido[4′,3′:3,4]pyrazolo[1,5-a]pyrazine-7-carboxamide] |  |  |  | 0.086 | > 50 | > 3
CNC(=O)[C@@H]1CN(C(C)c2ccc(-n3ncnc3C)cn2)C(=O)c2c3c(nn21)C[C@@H](C)N(C(=O)c1ccc(Cl)c(Cl)c1)C3 (single isomer, unassigned) [Compound 41A, (3R,7S)-2-(3,4-Dichlorobenzoyl)-N,3-dimethyl-9-((R*)-1-(5-(5-methyl-1H-1,2,4-triazol-1-yl)pyridin-2-yl)ethyl)-10-oxo-1,2,3,4,7,8,9,10-octahydropyrido[4′,3′:3,4] pyrazolo[1,5-a]pyrazine-7-carboxamide] | 2.21 |  |  |  | > 50 | > 3
CNC(=O)[C@@H]1CN(C(C)c2cnc(C(F)(F)F)nc2)C(=O)c2c3c(nn21)C[C@@H](C)N(C(=O)c1ccc(Cl)c(C(F)(F)F)c1)C3 (single isomer, unassigned) [Compound 43A, (3R,7S)-2-(4-Chloro-3-(trifluoromethyl)benzoyl)-N,3-dimethyl-10-oxo-9-((R*)-1-(2-(trifluoromethyl)pyrimidin-5-yl)ethyl)-1,2,3,4,7,8,9,10-octahydropyrido[4′,3′:3,4]pyrazolo[1,5-a]pyrazine-7-carboxamide] | 0.61 |  |  |  | > 50 | > 3
CNC(=O)[C@@H]1CN([C@H](C)c2ccc(C(F)(F)F)nc2)C(=O)c2c3c(nn21)C[C@@H](C)N(C(=O)c1ccc(Cl)c(Cl)c1)C3 [Compound 13A, (3R,7S)-2-(3,4-Dichlorobenzoyl)-N,3-dimethyl-10-oxo-9-((R)-1-(6-(trifluoromethyl)pyridin-3-yl)ethyl)-1,2,3,4,7,8,9,10-octahydropyrido[4′,3′:3,4]pyrazolo[1,5-a]pyrazine-7-carboxamide] |  |  |  | 0.34 | > 50 | > 3
C[C@@H]1Cc2nn3c(c2CN1C(=O)c1ccc(Cl)c(Cl)c1)C(=O)N([C@@H](C)c1ccc(OC(F)F)cc1)CC3 [Ref 2, reference compound] |  |  |  | 0.026 | 19.8 | 0.117
CNC(=O)[C@@H]1CN(C(C)c2ccc(-n3cncn3)cn2)C(=O)c2c3c(nn21)C[C@@H](C)N(C(=O)c1ccc(Cl)c(Cl)c1)C3 (single isomer, unassigned) [Compound 40A, (3R,7S)-9-((R*)-1-(5-(1H-1,2,4-Triazol-1-yl)pyridin-2-yl)ethyl)-2-(3,4-dichlorobenzoyl)-N,3-dimethyl-10-oxo-1,2,3,4,7,8,9,10-octahydropyrido[4′,3′:3,4]pyrazolo [1,5-a]pyrazine-7-carboxamide] | 0.28 |  |  |  | > 50 | > 3
CNC(=O)[C@@H]1CN([C@@H](C)c2ccc(OC(F)F)cc2)C(=O)c2c3c(nn21)C[C@@H](C)N(C(=O)c1ccc(Cl)c(C(F)F)c1)C3 [Compound 25, (3R,7S)-2-(4-Chloro-3-(difluoromethyl)benzoyl)-9-((S)-1-(4-(difluoromethoxy)phenyl)ethyl)-N,3-dimethyl-10-oxo-1,2,3,4,7,8,9,10-octahydropyrido[4′,3′:3,4]pyrazolo[1,5-a]pyrazine-7-carboxamide] |  |  |  | 0.01 | > 50 | 1.3
CNC(=O)[C@@H]1CN(Cc2ccc(OC(F)F)cc2)C(=O)c2c3c(nn21)C[C@@H](C)N(C(=O)c1ccc(Cl)c(Cl)c1)C3 [Compound 17, (3R,7S)-2-(3,4-Dichlorobenzoyl)-9-(4-(difluoromethoxy)benzyl)-N,3-dimethyl-10-oxo-1,2,3,4,7,8,9,10-octahydropyrido[4′,3′:3,4]pyrazolo[1,5-a]pyrazine-7-carboxamide] |  |  |  | 0.036 | 39.1 | > 3
CCC(c1ccc(S(C)(=O)=O)cc1)N1C[C@@H](C(=O)NC)n2nc3c(c2C1=O)CN(C(=O)c1ccc(Cl)c(Cl)c1)[C@H](C)C3 (single isomer, unassigned) [Compound 22A, (3R,7S)-2-(3,4-Dichlorobenzoyl)-N,3-dimethyl-9-((R*)-1-(4-(methylsulfonyl)phenyl)propyl)-10-oxo-1,2,3,4,7,8,9,10-octahydropyrido[4′,3′:3,4]pyrazolo[1,5-a]pyrazine-7-carboxamide] | 0.27 |  |  |  | > 50 | > 3
CNC(=O)[C@@H]1CN(C(C)c2ccn(CC(F)(F)F)n2)C(=O)c2c3c(nn21)C[C@@H](C)N(C(=O)c1ccc(Cl)c(C(F)(F)F)c1)C3 (single isomer, unassigned) [Compound 14B, (3R,7S)-2-(4-chloro-3-(trifluoromethyl)benzoyl)-N,3-dimethyl-10-oxo-9-((S*)-1-(1-(2,2,2-trifluoroethyl)-1H-pyrazol-3-yl)ethyl)-1,2,3,4,7,8,9,10-octahydropyrido[4′,3′:3,4]pyrazolo[1,5-a]pyrazine-7-carboxamide] |  |  |  | 0.031 | > 50 | > 3
CNC(=O)[C@@H]1CN(C(C)c2ccnc(C(F)(F)F)c2)C(=O)c2c3c(nn21)C[C@@H](C)N(C(=O)c1ccc(Cl)c(Cl)c1)C3 (single isomer, unassigned) [Compound 9B, (3R,7S)-2-(3,4-Dichlorobenzoyl)-N,3-dimethyl-10-oxo-9-((S*)-1-(2-(trifluoromethyl)pyridin-4-yl)ethyl)-1,2,3,4,7,8,9,10-octahydropyrido[4′,3′:3,4]pyrazolo[1,5-a]pyrazine-7-carboxamide] |  |  |  | 0.061 | > 50 | > 3
CNC(=O)[C@@H]1CN(C(C)c2ccc(C)nn2)C(=O)c2c3c(nn21)C[C@@H](C)N(C(=O)c1ccc(Cl)c(Cl)c1)C3 (single isomer, unassigned) [Compound 1B, (3R,7S)-2-(3,4-Dichlorobenzoyl)-N,3-dimethyl-9-((S*)-1-(6-methylpyridazin-3-yl)ethyl)-10-oxo-1,2,3,4,7,8,9,10-octahydropyrido[4′,3′:3,4]pyrazolo[1,5-a]pyrazine-7-carboxamide] |  |  |  | 0.38 | > 50 | > 3
CNC(=O)[C@@H]1CN(C(C)c2ccc(-c3nnnn3C)cc2)C(=O)c2c3c(nn21)C[C@@H](C)N(C(=O)c1ccc(Cl)c(Cl)c1)C3 (single isomer, unassigned) [Compound 29A, (3R,7S)-2-(3,4-Dichlorobenzoyl)-N,3-dimethyl-9-((R*)-1-(4-(1-methyl-1H-tetrazol-5-yl)phenyl)ethyl)-10-oxo-1,2,3,4,7,8,9,10-octahydropyrido[4′,3′:3,4]pyrazolo[1,5-a]pyrazine-7-carboxamide] | 0.82 |  |  |  | > 50 | > 3
C[C@@H]1Cc2nn3c(c2CN1C(=O)c1ccc(Cl)c(C#N)c1)C(=O)N([C@H](C)c1ccc(OC(F)F)cc1)C[C@H]3C(=O)N(C)C [Compound 27A, (3R,7S)-2-(4-Chloro-3-cyanobenzoyl)-9-((R)-1-(4-(difluoromethoxy)phenyl)ethyl)-N,N,3-trimethyl-10-oxo-1,2,3,4,7,8,9,10-octahydropyrido[4′,3′:3,4]pyrazolo[1,5-a]pyrazine-7-carboxamide] |  |  |  | 0.031 | > 50 | > 3
